Results taken from US20230167073A1 (Teijin Pharma Limited, priority 2020, published 2023).

biological target: T1, Human TRPC6 (Homo sapiens, UniProt Q9Y210); assay: Evaluation of TRPC6 channel inhibitory activity (1), FLIPR Calcium 5 Assay Kit, OAG stimulation (Compound Nos. 1-1293); format: cell-based; details: Human TRPC6 stably-expressing cells, OAG 30 μM, FLIPR Calcium 5 Assay Kit; read-out: Inhibitory activity (pIC50 class) (converted)
T1 construct: expressed in transfected cells
T1 sequence (Q9Y210 1-931): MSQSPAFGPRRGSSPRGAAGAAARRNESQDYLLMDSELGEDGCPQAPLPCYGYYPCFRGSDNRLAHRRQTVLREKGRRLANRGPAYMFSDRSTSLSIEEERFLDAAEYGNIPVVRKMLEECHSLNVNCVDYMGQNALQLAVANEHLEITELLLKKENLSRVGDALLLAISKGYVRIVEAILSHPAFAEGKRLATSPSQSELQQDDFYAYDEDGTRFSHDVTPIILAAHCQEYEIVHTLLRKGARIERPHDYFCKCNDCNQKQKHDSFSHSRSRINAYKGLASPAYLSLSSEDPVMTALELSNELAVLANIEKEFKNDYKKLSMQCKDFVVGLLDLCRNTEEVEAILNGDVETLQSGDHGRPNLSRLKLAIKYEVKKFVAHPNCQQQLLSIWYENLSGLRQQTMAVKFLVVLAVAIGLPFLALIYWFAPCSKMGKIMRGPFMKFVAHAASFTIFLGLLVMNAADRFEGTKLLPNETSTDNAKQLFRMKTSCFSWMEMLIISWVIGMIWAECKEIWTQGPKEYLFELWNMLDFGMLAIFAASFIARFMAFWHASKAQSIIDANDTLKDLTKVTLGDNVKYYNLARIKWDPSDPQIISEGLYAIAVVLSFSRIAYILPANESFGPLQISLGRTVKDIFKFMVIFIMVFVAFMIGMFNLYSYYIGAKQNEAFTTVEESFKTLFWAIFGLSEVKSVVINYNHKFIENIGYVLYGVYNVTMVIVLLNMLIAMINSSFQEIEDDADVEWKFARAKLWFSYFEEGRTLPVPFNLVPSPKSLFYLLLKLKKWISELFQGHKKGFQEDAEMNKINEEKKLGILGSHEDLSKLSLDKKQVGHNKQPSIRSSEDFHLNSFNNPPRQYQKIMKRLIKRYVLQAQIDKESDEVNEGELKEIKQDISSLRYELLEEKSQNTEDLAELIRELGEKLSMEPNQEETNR
Outline: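 TRPC6 (human) stable cells, 24 h culture; Ca5 no-wash dye + probenecid 30 min; cpd 20 min; OAG 30 μM final; ΔF (pre-cpd min to post-OAG max); 0%/100% = no cpd / no cpd + no OAG; 4PL → pIC50, binned +/++/+++.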

Structure (SMILES)	IC50
Cn1nc(C2CCCC2)cc1Oc1cc(C#N)ccc1-c1ccc([C@H](O)CN)cn1 [compound 392, 4-[5-[(1S)-2-amino-1-hydroxyethyl]pyridin-2-yl]-3-(5-cyclopentyl-2-methylpyrazol-3-yl)oxybenzonitrile]	< 10 nM
Cc1nc(Oc2cc(C#N)ccc2-n2cc([C@@H](O)CN)cn2)cc(-c2ccccc2C#N)n1 [compound 341, 4-[4-[(1R)-2-amino-1-hydroxyethyl]pyrazol-1-yl]-3-[6-(2-cyanophenyl)-2-methylpyrimidin-4-yl]oxybenzonitrile]	< 10 nM
N#Cc1ccc(-c2ccc(CCN)nc2)c(Oc2cc(Cl)cnn2)c1 [Compound 79, 4-[6-(2-aminoethyl)pyridin-3-yl]-3-(5-chloropyridazin-3-yl)oxybenzonitrile]	> 1000 nM
Cc1nc(Oc2cc(C#N)ccc2-c2ncc(CCN)cn2)cc(N2CC(F)C2)n1 [compound 858, 4-[5-(2-aminoethyl)pyrimidin-2-yl]-3-[6-(3-fluoroazetidin-1-yl)-2-methylpyrimidin-4-yl]oxybenzonitrile]	10 to 1000 nM
N#Cc1ccc(-c2ccc(CN)cn2)c(Oc2cnnc(N3CCCCC3)c2)c1 [compound 697, 4-[5-(aminomethyl)pyridin-2-yl]-3-(6-piperidin-1-ylpyridazin-4-yl)oxybenzonitrile]	< 10 nM
CCCN(CCC)c1cc(Oc2cc(C#N)ccc2-c2ccc(CCN)cc2)nc(C)n1 [Compound 16, 4-[4-(2-aminoethyl)phenyl]-3-[6-(dipropylamino)-2-methylpyrimidin-4-yl]oxybenzonitrile]	10 to 1000 nM
Cc1nc(Oc2cc(C#N)ccc2-n2cc([C@H](O)CN)cn2)cc(-c2ccccc2Cl)n1 [compound 343, 4-[4-[(1S)-2-amino-1-hydroxyethyl]pyrazol-1-yl]-3-[6-(2-chlorophenyl)-2-methylpyrimidin-4-yl]oxybenzonitrile]	10 to 1000 nM
Cc1c(Oc2cc(F)ccc2-c2ncc(CCN)cn2)cnn1CC(C)(C)C [compound 986, 2-[2-[2-[1-(2,2-dimethylpropyl)-5-methylpyrazol-4-yl]oxy-4-fluorophenyl]pyrimidin-5-yl]ethanamine]	10 to 1000 nM
Cc1nc(OCC(F)F)cc(Oc2cc(C#N)ccc2-c2ncc(CN)cn2)n1 [compound 897, 4-[5-(aminomethyl)pyrimidin-2-yl]-3-[6-(2,2-difluoroethoxy)-2-methylpyrimidin-4-yl]oxybenzonitrile]	> 1000 nM
CC(C)Cn1cc(Oc2cc(C#N)ccc2-c2ncc(CCN)cn2)c(C(F)(F)F)n1 [compound 955, 4-[5-(2-aminoethyl)pyrimidin-2-yl]-3-[1-(2-methylpropyl)-3-(trifluoromethyl)pyrazol-4-yl]oxybenzonitrile]	< 10 nM
Cn1nc(-c2ccccc2)cc1Oc1cc(C#N)ncc1-c1ccc(CCN)cn1 [Compound No. 1277, 5-[5-(2-Aminoethyl)pyridin-2-yl]-4-(2-methyl-5-phenylpyrazol-3-yl)oxypyridine-2-carbonitrile]	10 to 1000 nM
CC(C)n1nc(C2CC2)cc1Oc1cc(C#N)ccc1-c1ccc([C@@H](O)CN)cn1 [compound 382, 4-[5-[(1R)-2-amino-1-hydroxyethyl]pyridin-2-yl]-3-(5-cyclopropyl-2-propan-2-ylpyrazol-3-yl)oxybenzonitrile]	< 10 nM
Cn1nc(-c2ccccn2)cc1Oc1cc(C#N)ccc1-c1ccc(C(C)(C)N)cn1 [compound 395, 4-[5-(2-aminopropan-2-yl)pyridin-2-yl]-3-(2-methyl-5-pyridin-2-ylpyrazol-3-yl)oxybenzonitrile]	10 to 1000 nM
Cn1nc(C2CC2)cc1Oc1cc(C#N)ccc1-c1ccc(C(=O)CN)cn1 [compound 923, 4-[5-(2-aminoacetyl)pyridin-2-yl]-3-(5-cyclopropyl-2-methylpyrazol-3-yl)oxybenzonitrile]	10 to 1000 nM
CN(CC(F)F)c1cc(Oc2cc(F)ccc2-c2ccc(CCN)cn2)n(C)n1 [compound 988, 5-[2-[5-(2-aminoethyl)pyridin-2-yl]-5-fluorophenoxy]-N-(2,2-difluoroethyl)-N,1-dimethylpyrazole-3-amine]	< 10 nM
CN(C)c1cc(Oc2cc(C#N)ccc2-c2ccc(CN)cn2)n(C)n1 [compound 623, 4-[5-(aminomethyl)pyridin-2-yl]-3-[5-(dimethylamino)-2-methylpyrazol-3-yl]oxybenzonitrile]	< 10 nM
Cn1nc(C2CC2)cc1Oc1cc(C#N)ccc1-c1ccc(C2CNCCO2)cn1 (stereo not drawn) [compound 427, 3-(5-cyclopropyl-2-methylpyrazol-3-yl)oxy-4-(5-morpholin-2-ylpyridin-2-yl)benzonitrile]	10 to 1000 nM
N#Cc1ccc(-c2ncc(CN)cn2)c(Oc2nnc(N3CCCCC3)s2)c1 [compound 707, 4-[5-(aminomethyl)pyrimidin-2-yl]-3-[(5-piperidin-1-yl-1,3,4-thiadiazol-2-yl)oxy]benzonitrile]	10 to 1000 nM
CN(C)c1cc(Oc2cc(C#N)ccc2-c2ccc(CC3(N)COC3)cn2)n(C)n1 [compound 743, 4-[5-[(3-aminooxetan-3-yl)methyl]pyridin-2-yl]-3-[5-(dimethylamino)-2-methylpyrazol-3-yl]oxybenzonitrile]	< 10 nM
CCNc1cc(Oc2cc(C#N)ccc2-c2ncc(CN)cn2)nc(C)n1 [compound 631, 4-[5-(aminomethyl)pyrimidin-2-yl]-3-[6-(ethylamino)-2-methylpyrimidin-4-yl]oxybenzonitrile]	10 to 1000 nM
Cn1nc(-c2ccccn2)cc1Oc1cc(C#N)ccc1-c1ccc(C(O)CN)cn1 (stereo not drawn) [Compound 249, 4-[5-(2-amino-1-hydroxyethyl)pyridin-2-yl]-3-(2-methyl-5-pyridin-2-ylpyrazol-3-yl)oxybenzonitrile]	< 10 nM
Cc1nc(Oc2cc(C#N)ccc2-c2ncc(CN)cn2)cc(OC(C)C)n1 [compound 896, 4-[5-(aminomethyl)pyrimidin-2-yl]-3-(2-methyl-6-propan-2-yloxypyrimidin-4-yl)oxybenzonitrile]	10 to 1000 nM
Cc1nn(CC(C)C)cc1Oc1cc(F)ccc1-c1ncc(CCN)cn1 [Compound No. 966, 2-[2-[4-Fluoro-2-[3-methyl-1-(2-methylpropyl)pyrazol-4-yl]oxyphenyl]pyrimidin-5-yl]ethanamine]	< 10 nM
N#Cc1ccc(-n2ccc(CN)n2)c(Oc2cnnc(-c3ccccc3)c2)c1 [Compound 135, 4-[3-(aminomethyl)pyrazol-1-yl]-3-(6-phenylpyridazin-4-yl)oxybenzonitrile]	> 1000 nM
Cc1nc(Oc2cc(C#N)ccc2-c2ccc(C3CN(CCC(=O)O)C3)cc2)cc(N2CCOCC2)n1 [Compound 55, 3-[3-[4-[4-cyano-2-(2-methyl-6-morpholin-4-ylpyrimidin-4-yl)oxyphenyl]phenyl]azetidin-1-yl]propanoic acid]	> 1000 nM
N#Cc1ccc(-c2ccc(CN)cn2)c(C(=O)c2nnc(N3CCOCC3)s2)c1 [compound 1093, 4-[5-(aminomethyl)pyridin-2-yl]-3-(5-morpholin-4-yl-1,3,4-thiadiazole-2-carbonyl)benzonitrile]	> 1000 nM
Cc1nc(OCC(C)C)cc(Oc2cc(C#N)ccc2-n2cc([C@@H](O)CN)cn2)n1 [Compound 267, 4-[4-[(1R)-2-amino-1-hydroxyethyl]pyrazol-1-yl]-3-[2-methyl-6-(2-methylpropoxy)pyrimidin-4-yl]oxybenzonitrile]	< 10 nM
